Molecular target: human GPR84 (Homo sapiens, UniProt Q9NQS5)
Experiment: cell-based
Assay type: cell-based
Conditions: for percent receptor activation at 10 μM, cAMP assay: compound 10 μM; for percent receptor activation at 10 μM, cAMP assay / EC50: forskolin 10 μM; for EC50: EC50 ± SEM, cAMP assay, CHO cells expressing human GPR84; for Emax: read-out: efficacy (Emax), cAMP assay

human GPR84, sequence (Q9NQS5 whole entry): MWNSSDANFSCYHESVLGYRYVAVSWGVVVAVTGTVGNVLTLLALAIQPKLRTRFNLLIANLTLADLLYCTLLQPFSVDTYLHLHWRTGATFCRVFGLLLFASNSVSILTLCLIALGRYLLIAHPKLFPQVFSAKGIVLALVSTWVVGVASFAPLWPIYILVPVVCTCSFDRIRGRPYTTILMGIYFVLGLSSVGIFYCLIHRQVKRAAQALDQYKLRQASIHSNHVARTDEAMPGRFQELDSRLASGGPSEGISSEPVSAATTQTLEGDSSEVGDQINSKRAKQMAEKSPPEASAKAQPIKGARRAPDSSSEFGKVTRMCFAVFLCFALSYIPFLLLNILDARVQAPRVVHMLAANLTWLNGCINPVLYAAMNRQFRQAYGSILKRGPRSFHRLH

Row | agonistic activity at GPR84 in cAMP assay, in words | percent receptor activation at 10 μM, cAMP assay [%] | EC50 [nM] | Emax [%] | Compound
1 | abolished activity | 14 |  |  | CCCCC(CC)CNc1cc(=O)[nH]c(=O)[nH]1 (racemic) [Compound 24, N^6-(R,S)-(2-ethyl)hexyluracil]
2 | inactive | 15 |  |  | CCNc1cc(=O)[nH]c(=O)[nH]1 [Compound 13]
3 | inactive | −9 |  |  | CCCNc1cc(=O)[nH]c(=O)[nH]1 [Compound 14]
4 |  | 11 |  |  | CC(C)CNc1cc(=O)[nH]c(=O)[nH]1 [Compound 15]
5 |  | 4 |  |  | CC(C)(C)CNc1cc(=O)[nH]c(=O)[nH]1 [Compound 16]
6 |  | 14 |  |  | CC(C)CCNc1cc(=O)[nH]c(=O)[nH]1 [Compound 17]
7 |  | 18 |  |  | CC(C)(C)CCNc1cc(=O)[nH]c(=O)[nH]1 [Compound 18]
8 |  |  | 12 ± 6 | 113 | CCCCCCCNc1cc(=O)[nH]c(=O)[nH]1 [Compound 21, 6-Heptylamino-2,4(1H,3H)-pyrimidinedione]
9 |  |  |  | 109 | CCCCCCCCCCNc1cc(=O)[nH]c(=O)[nH]1 [Compound 23, 6-Decylamino-2,4(1H,3H)-pyrimidinedione]
10 |  |  | 5900 ± 2600 | 99 | CC(C)CCCCCNc1cc(=O)[nH]c(=O)[nH]1 [Compound 25]
11 |  |  | 23000 ± 3000 | 100 | CSCCCNc1cc(=O)[nH]c(=O)[nH]1 [Compound 26, N^6-Methylthiopropyluracil]
12 |  | 51 ± 8 |  |  | O=c1cc(NCCCCCCO)[nH]c(=O)[nH]1 [Compound 27]
13 |  | 25 |  |  | O=C(O)CCCCCNc1cc(=O)[nH]c(=O)[nH]1 [Compound 29]
14 |  | 13 |  |  | O=C(O)CCCCCCCNc1cc(=O)[nH]c(=O)[nH]1 [Compound 30]
15 |  |  | 2000 ± 500 | 74 | CCCCCCCCCNc1cc(=O)n(C)c(=O)[nH]1 [Compound 32, 6-Nonylamino-3-methyl-2,4(1H,3H)-pyrimidinedione]
16 |  | 32 |  |  | CCCCCCNc1cc(=O)[nH]c(=O)n1C [Compound 34]
17 |  | 34 |  |  | CCCCCCCCNc1cc(=O)[nH]c(=O)n1C [Compound 35]
18 | virtually abolished potency | 25 |  |  | CCCCCCCCNc1cc(=O)n(C)c(=O)n1C [Compound 36]
19 |  |  | 110 ± 40 | 106 | CCCCCCN(C)c1cc(=O)[nH]c(=O)[nH]1 [Compound 37, 6-(N-Methylhexylamino)-2,4(1H,3H)-pyrimidinedione]
20 | completely inactive | 6 |  |  | CCCCCCCCNc1c[nH]c(=O)[nH]c1=O [Compound 39]
21 | inactive | 12 |  |  | O=c1cc(NCc2ccccc2)[nH]c(=O)[nH]1 [Compound 40]
22 | inactive | 23 |  |  | O=c1cc(NCc2cccc3ccccc23)[nH]c(=O)[nH]1 [Compound 41]
23 |  |  | 1700 ± 600 | 120 | O=c1cc(NCCCc2ccccc2)[nH]c(=O)[nH]1 [Compound 43, 6-(3-Phenylpropylamino)-2,4(1H,3H)-pyrimidinedione]
24 |  |  | 24 ± 10 | 108 | Oc1cc(NCCCCc2ccccc2)nc(O)n1 [Compound 44, 6-(4-Phenylbutylamino)-2,4(1H,3H)-pyrimidinedione]
25 |  |  |  | 136 | O=c1cc(NCCc2cccc(F)c2)[nH]c(=O)[nH]1 [Compound 53, 6-(m-Fluorophenylethylamino)-2,4(1H,3H)-pyrimidinedione]
26 |  |  | 3200 ± 100 | 96 | Cc1ccccc1CCNc1cc(=O)[nH]c(=O)[nH]1 [Compound 56, 6-(o-Methylphenylethylamino)-2,4(1H,3H)-pyrimidinedione]

Reference: PMC6044507 (ACS Omega, 2018)
